For orientation: EC50 means the concentration giving half of the maximal effect.

This is an account of results in patent US8178568B2, “Sulfone compounds which modulate the CB2 receptor” (Boehringer Ingelheim International GmbH, priority 2008, dated 2012).

For the first assay, the target named is T1, human CB2R (Homo sapiens, UniProt P34972).
T1 construct: host or cells: CHO cells
T1 sequence (P34972 whole entry): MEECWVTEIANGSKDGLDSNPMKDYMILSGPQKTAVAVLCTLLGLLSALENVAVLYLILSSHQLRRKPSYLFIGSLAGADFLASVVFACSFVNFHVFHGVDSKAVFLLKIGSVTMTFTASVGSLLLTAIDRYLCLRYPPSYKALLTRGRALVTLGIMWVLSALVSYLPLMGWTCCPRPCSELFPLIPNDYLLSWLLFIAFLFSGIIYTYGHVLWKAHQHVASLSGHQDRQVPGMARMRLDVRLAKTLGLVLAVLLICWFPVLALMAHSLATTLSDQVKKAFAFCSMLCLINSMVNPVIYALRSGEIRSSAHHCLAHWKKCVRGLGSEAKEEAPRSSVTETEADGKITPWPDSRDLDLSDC
The assay is described as follows: CB2R mediated modulation of cAMP synthesis. The assay is classed as cell-based.
Settings: not given
As to the method: B. CB2R Mediated Modulation of cAMP Synthesis:
Compounds of the invention were evaluated for their CB2 agonist or inverse agonistic activity in accordance with the following experimental method.
CHO cells expressing human CB2R (Euroscreen) were plated at a density of 5000 cells per well in 384 well plates and incubated overnight at 37° C. After removing the media, the cells were treated with test compounds diluted in stimulation buffer containing 1 mM IBMX, 0.25% BSA and 10 uM Forskolin. The assay was incubated for 30 minutes at 37° C. Cells were lysed and the cAMP concentration was measured using DiscoverX-XS cAMP kit, following the manufacturer's protocol. In this setting, agonists will decrease forskolin induced production of cAMP while inverse agonists will further increase forskolin induced production of cAMP. EC50 of agonists were calculated as follows. The maximal amount of cAMP produced by forskolin compared to the level of cAMP inhibited by 1 uM CP55940 is defined as 100%. The EC50 value of each test compound was determined as the concentration at which 50% of the forskolin-stimulated cAMP synthesis was inhibited. Data was analyzed using a four-parameter logistic model. (Model 205 of XLfit 4.0).
In the case of `CC(C)(C)c1cc(N2CCC(C)(S(=O)(=O)c3ccc(Cl)cc3)C2=O)no1` (stereo not drawn), the midpoint of the response, the EC50, lay at 14 nM.

`CC(C)(C)c1cc(N2CCC(C)(S(=O)(=O)c3ccc(Cl)cc3)C2=O)on1` (stereo not drawn): the EC50 was 25 nM.

In turn, `CC(C)(C)c1cc(N2CC[C@](C)(S(=O)(=O)c3ccc(Cl)cc3)C2=O)on1` registered a concentration for a half-maximal effect (EC50) of 25 nM.

Regarding `CC(C)(C)c1cc(N2CC[C@@](C)(S(=O)(=O)c3ccc(Cl)cc3)C2=O)on1`, the midpoint of the response, the EC50, lay at 37 nM.

The compound `CC(C)(C)c1cc(NC(=O)C(C)(CCO)S(=O)(=O)C2CCOCC2)on1` (stereo not drawn) came in with an EC50 of 21 nM.

`CC(C)(C)c1cc(NC(=O)C(C)(CCO)S(=O)(=O)c2ccc(Cl)cc2)on1` (stereo not drawn) had an EC50 of 17 nM.

Staying with this assay, now noted: Table III, formula I compounds; CHO cells expressing human CB2R, inhibition of forskolin-stimulated cAMP synthesis; read-out: CB2 EC50.
Turning to `CC1(S(=O)(=O)c2ccc(Cl)cc2)CCN(c2nnc(-c3ccccc3)[nH]2)C1=O` (stereo not drawn), the EC50 was 20 nM.

In the case of `CC(C)(C)c1cc(N2CCC(C)(S(=O)(=O)C3CCOCC3)C2=O)on1` (stereo not drawn), the EC50 came out at 220 nM.

Staying with this assay, now noted: Table VI, formula IB compounds; CHO cells expressing human CB2R, inhibition of forskolin-stimulated cAMP synthesis; read-out: CB2 EC50.
`O=C(Nc1nc(-c2ccccc2)ns1)C(CCO)S(=O)(=O)c1ccc(Cl)cc1` (stereo not drawn): the EC50 is 544 nM.
